From patent publication US8841274B2, “Protein arginine N-methyltransferase-5 method of cancer treatment” (priority 2009, dated 2014)

What was measured:
Type in all cases: cell-based
U2OS cells = experiment: Apoptosis (sub-G1) by FACS in U2OS cells; conditions: U2OS cells, expression vectors 48 h; relative to wild-type E2F-1; n=2
Procedure: Whether arginine methylation influences E2F-1-dependent apoptosis was investigated by comparing the ability of wild-type E2F-1 to the KK and KKK mutants to induce cells with a sub-G1 DNA content (Stevens et al 2003). […] U2OS cells were transfected with expression vectors encoding wild-type E2F-1, KK and KKK as indicated for 48 h and analysed by FACS as described. The graph represents the relative change in sub-G1 populations compared to the empty vector control treatment; n=2.
The graph (i) represents the relative number of sub-G I cells (compared to the control treatment) in the indicated conditions; and (ii) the level of PRMT5 and E2F-1; n=3.
PRMT5 (P) or control (C) non-targeting siRNA (25 nM) was transfected into HCT116 p53+/+ (i), HCT116 p53−/− (ii) or U2OS (iii) cells and the cells were harvested 72 h post-transfection and analysed by FACS. The graph represents the actual number of sub-G1 cells in the indicated conditions, and the immunoblot the level of PRMT5 and actin control; n=3.
PRMT5 (P), E2F-1 (E) or control (C) non-targeting siRNA was transfected into U2OS cells and harvested 72 h post-transfection and analysed by FACS as described.
Cells were transfected with the indicated expression vectors together with pBB14-GFP (for 48 h) to monitor transfection efficiency or siRNA (for 48 h or 72 h) with or without treatment of the DNA damage agent for the last 16 h. Then, cells were fixed and stained with propidium iodide and analyzed by Flow Cytometry.

[1] = tested on: p73-luciferase or cyclinE-luciferase; experiment: Reporter assay with E2F-responsive promoters; conditions: U2OS cells, 48 h, equivalent protein level; compared to wild-type E2F-1; n=3
Procedure: To further explore the role of arginine methylation in the transcription properties of E2F-1, wild-type E2F-1 was compared with the KK and KKK mutants in a reporter-based transfection assay, using E2F-responsive promoters derived from E2F target genes. The assay was performed under conditions in which each mutant protein was expressed at an equivalent level to wild-type E2F-1 (FIG. 4aii and bii), thus ruling out any difference in activity that could be attributed to protein levels. […] FIGS. 4a and b show the transcription properties of wild-type E2F-1, KK and KKK mutants. U2OS cells were transfected with expression vectors encoding WT or mutant E2F-1 protein, together with p73-luciferase (A) or cyclinE-luciferase (B) for 48 h as indicated, and pCMV-βgal to monitor transfection efficiency. Relative luciferase activity (luciferase/βgal) is shown together with expression level of ectopic proteins; n=3. […] PRMT5 (P) or control (C) non-targeting siRNA was transfected into U2OS cells together with p73-luciferase (i) or cyclinE-luciferase (ii) for 48 h, together with pCMV-βgal to monitor transfection efficiency. Relative luciferase activity is shown together with expression level of the ectopic proteins.
Cells were transfected with expression vectors (1 μg) encoding WT or the mutant E2F-1 proteins as indicated with E2F responsive luciferase reporters, namely p73-luciferase or cyclinE-luciferase, together with pCMV-βgal to monitor transfection efficiency. Cells were harvested, lysed 48 h post-transfection and luciferase activity measured as previously described (Janson et al 2008).

DP-1 = target: T1, DP-1 (Homo sapiens, UniProt Q14186); experiment: Co-immunoprecipitation of ectopic E2F-1 with DP-1 in U2OS cells; conditions: expression vector transfected into U2OS cells, HA11 IP
T1 construct: endogenous in cells; host or cells: U2OS
T1 sequence (Q14186 1-410): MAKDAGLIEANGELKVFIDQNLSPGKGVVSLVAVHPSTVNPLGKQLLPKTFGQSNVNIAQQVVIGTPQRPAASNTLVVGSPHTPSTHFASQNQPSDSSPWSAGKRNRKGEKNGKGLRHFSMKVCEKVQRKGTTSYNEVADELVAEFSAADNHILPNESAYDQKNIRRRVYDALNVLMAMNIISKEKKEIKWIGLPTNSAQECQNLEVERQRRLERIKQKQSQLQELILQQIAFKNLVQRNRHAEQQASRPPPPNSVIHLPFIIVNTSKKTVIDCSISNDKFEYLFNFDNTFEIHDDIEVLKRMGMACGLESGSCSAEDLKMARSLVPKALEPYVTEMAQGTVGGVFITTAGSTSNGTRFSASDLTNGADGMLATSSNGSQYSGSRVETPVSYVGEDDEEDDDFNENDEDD
From the text: (§1) To establish whether E2F-1 was able to bind to PRMT5 in cells, the interaction between ectopic wild-type E2F-1 or KKK with PRMT5 was studied. […] Either a wild-type E2F-1 expression vector or a KKK expression vector was transfected into U2OS cells, and HA11 antibody was used for immunoprecipitation (IP) followed by immunoblotting with HA11 (E2F-1), PRMT5 or DP-1 as indicated. The level of input (In) protein is indicated. […] In contrast, binding to DP-1 was equivalent for both wild-type E2F-1 and KKK. […] Further, the RGRGR motif is necessary for the interaction, which also encompasses the site of PRMT5 methylation.
(§2) Cells were either left untransfected or transfected with expression vectors as indicated. At 48 h post transfection, cells were harvested in TNN buffer (50 mM Tris-HC1 [pH 7.4], 150 mM NaCl, 5 mM EDTA, 0.5% Ipegal, 50 mM NaF, 0.2 mM sodium orthovanadate and protease inhibitor cocktail (1 mM PMSF, leupeptin [1 μg/ml], aprotinin [1 μg/m1], and pepstatin A [1 μg/ml])) and rotated at 4° C. for 30 min to 1 h. The cell lysate was then homogenised, centrifuged at 11000 rpm for 10 min to remove cell debris and the supernatant collected. All lysates were normalized for protein concentration and, where appropriate, for transfection by β-galactosidase activity. […] Enhanced chemi-luminescence (Pierce Biotechnology, Rockford, Ill.) was used to visualize antibody binding.

PRMT5 = PRMT5 (Homo sapiens, UniProt O14744); experiment: Co-immunoprecipitation of ectopic E2F-1 with PRMT5 in U2OS cells; parameters: The indicated GST proteins were incubated with U2OS cell lysate; endogenous in cells; host or cells: U2OS; conditions: expression vector transfected into U2OS cells, HA11 IP
From the text: as §1, §2

PRMT5, sequence (O14744 whole entry): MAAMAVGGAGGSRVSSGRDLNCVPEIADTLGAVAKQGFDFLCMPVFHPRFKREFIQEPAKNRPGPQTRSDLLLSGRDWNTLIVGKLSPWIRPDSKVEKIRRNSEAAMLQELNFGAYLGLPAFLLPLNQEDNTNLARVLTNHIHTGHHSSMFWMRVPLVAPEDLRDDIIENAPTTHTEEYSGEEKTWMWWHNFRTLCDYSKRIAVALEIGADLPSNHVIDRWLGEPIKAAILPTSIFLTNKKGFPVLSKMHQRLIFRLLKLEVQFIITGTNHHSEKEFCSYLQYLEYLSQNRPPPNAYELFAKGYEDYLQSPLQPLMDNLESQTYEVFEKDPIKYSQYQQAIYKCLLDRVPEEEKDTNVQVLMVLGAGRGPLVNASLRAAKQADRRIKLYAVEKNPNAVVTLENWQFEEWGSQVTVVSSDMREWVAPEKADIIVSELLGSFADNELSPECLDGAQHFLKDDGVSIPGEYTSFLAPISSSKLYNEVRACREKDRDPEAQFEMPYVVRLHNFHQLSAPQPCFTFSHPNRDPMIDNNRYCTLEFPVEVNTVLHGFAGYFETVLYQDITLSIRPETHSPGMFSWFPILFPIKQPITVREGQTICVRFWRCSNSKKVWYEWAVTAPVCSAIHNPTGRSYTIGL

## KKK: methylation-defective E2F-1 protein containing the mutations R109K, R111K and R113K
U2OS cells
  apoptosis (sub-G1 population): increased levels of apoptosis
[1]
  transcriptional activity (relative luciferase activity): increased transcriptional activity
DP-1
  binding to DP-1 in cells: equivalent
PRMT5
  co-immunoprecipitation with PRMT5: not apparent
